According to paper PMC7321065, “Discovery of New Schiff Bases Tethered Pyrazole Moiety: Design, Synthesis, Biological Evaluation, and Molecular Docking Study as Dual Targeting DHFR/DNA Gyrase Inhibitors with Immunomodulatory Activity” (Molecules, 2020):
In brackets after ≈: the same amount, converted by molar mass. Where two headings read alike, the source gives them in different places.

Legend:
S. aureus ATCC 33591 [1] = experiment: MIC/MBC against MDRB, paper disk diffusion; format: cell-based; settings: Staphylococcus aureus, ATCC33591
Excerpt: (§1) The inhibition zone (IZ, mm±standard deviation) of pyrazole Schiff bases ( 6b, 7b, 7c, 8a, 8d and 9b) was
(§2) measurement according to the agar plate diffusion method against a panel of multidrug-resistant bacteria
(MDRB). […]

E. coli ATCC BAA-196 [2] = experiment: MIC/MBC against MDRB, paper disk diffusion; format: cell-based; settings: Escherichia coli, ATCCBAA196
Excerpt: as §1, §2
(MDRB). […]

[3] = tested on: S. aureus ATCC 43300 (MRSA); experiment: MIC/MBC against MDRB, paper disk diffusion; format: cell-based; settings: Staphylococcus aureus
Excerpt: as §1, §2
(MDRB). […]

[4] = tested on: P. aeruginosa ATCC BAA-2111; experiment: MIC/MBC against MDRB, paper disk diffusion; format: cell-based; settings: Pseudomonas aeruginosa, ATCCBAA2111
Excerpt: as §1, §2
(MDRB). […]

S. aureus ATCC 33591 [5] = experiment: Inhibition zone against MDRB, agar plate diffusion; format: cell-based
Fusarium oxysporum [6] = experiment: MIC/MFC, paper disk diffusion; format: cell-based; settings: Fusarium oxysporum
Procedure: (§3) Antimicrobial activities of the newly formed Schiff bases (6a–d, 7a–d, 8a–d, and 9a–d) and reference drugs were evaluated against three Gram-positive, three Gram-negative, and two fungi strain at Al-Azhar University, Cairo, Egypt. The inhibition zones (IZ, in mm ± standard deviation) and the minimal inhibitory concentration (MIC) (μg/mL) were determined by the conventional paper disk diffusion method.
(§4) In Vitro Antimicrobial Activities […]
(§5) DMSO was used for dissolving […]
(§6) the tested microorganisms.
(§7) The minimum inhibitory concentration (MIC), the minimum bactericidal concentration (MBC, µg/ml) and […]
(§8) and 9b) were determined by the conventional technique termed paper disk diffusion, by applying paper […]
(§9) Bacteria were grown on nutrient agar medium, while fungi and yeast were grown on Sabouraud agar medium. The purified streptomycin was dissolved in […]
(§10) inoculated with test organism. Growth inhibition was examined after 24 hr. from incubation at 37 °C for bacteria and after 72 hr. incubation at 27 °C for fungi and yeast. Each test was repeated three times. MIC was expressed as the lowest concentration inhibiting test organism’s growth. […]

Candida albicans [7] = experiment: MIC/MFC, paper disk diffusion; format: cell-based; settings: Candida albicans
Procedure: as §3, §4, §5, §6, §7, §8, §9, §10

E. coli ATCC BAA-196 [8] = experiment: Inhibition zone against MDRB, agar plate diffusion; format: cell-based
Salmonella typhi [9] = experiment: MIC/MBC, paper disk diffusion; format: cell-based; settings: Salmonella enterica, S. typhi
Procedure: as §3, §4, §5, §6, §7, §8, §9, §10

Staphylococcus aureus [10] = experiment: MIC/MBC, paper disk diffusion; format: cell-based; settings: Staphylococcus aureus
Procedure: as §3, §4, §5, §6, §7, §8, §9, §10

Enterococcus faecalis [11] = experiment: MIC/MBC, paper disk diffusion; format: cell-based
Procedure: as §3, §4, §5, §6, §7, §8, §9, §10

Escherichia coli [12] = experiment: MIC/MBC, paper disk diffusion; format: cell-based; settings: Escherichia coli
Procedure: as §3, §4, §5, §6, §7, §8, §9, §10

Bacillus subtilis [13] = experiment: MIC/MBC, paper disk diffusion; format: cell-based
Procedure: as §3, §4, §5, §6, §7, §8, §9, §10

Pseudomonas aeruginosa [14] = experiment: MIC/MBC, paper disk diffusion; format: cell-based; settings: for MBC: P. aeruginosa
Procedure: as §3, §4, §5, §6, §7, §8, §9, §10

[15] = tested on: P. aeruginosa ATCC BAA-2111; experiment: Inhibition zone against MDRB, agar plate diffusion; format: cell-based
Enterococcus faecalis [16] = experiment: Inhibition zone, agar plate diffusion; format: cell-based; settings: read-out: Inhibition zone (IZ)
Procedure: as §3
(§11) In Vitro Antimicrobial Activities
(§12) The antimicrobial activities inhibition zone (IZ, mm±standard deviation) of pyrazole Schiff bases ( 6a-d , 7a-d, 8a-d and 9a-d ) was measurement according to the agar plate diffusion method. Briefly, 100 µl of the […]
(§13) […] of each sample (at 0.5 mg/mL) was added to each well (10 mm diameter holes cut in the agar gel). The plates were incubated for 24 h at 37 °C (for bacteria and yeast) and for 72 h at 27 °C (for filamentous fungi), each test was repeated three times. After incubation, the microorganism's growth was observed. […]
(§14) drugs while Amphotericin B was used as standard antifungal drug. The resulting inhibition zone diameters were measured in millimeters and used as criterion for the antimicrobial activity. Solvent controls (DMSO) were included in every experiment as negative controls. DMSO was used for dissolving […]
(§15) the tested microorganisms. […]

Escherichia coli [17] = experiment: Inhibition zone, agar plate diffusion; format: cell-based; settings: read-out: Inhibition zone (IZ)
Procedure: as §3, §11, §12, §13, §14, §15

Bacillus subtilis [18] = experiment: Inhibition zone, agar plate diffusion; format: cell-based; settings: read-out: Inhibition zone (IZ)
Procedure: as §3, §11, §12, §13, §14, §15

Pseudomonas aeruginosa [19] = experiment: Inhibition zone, agar plate diffusion; format: cell-based; settings: read-out: Inhibition zone (IZ)
Procedure: as §3, §11, §12, §13, §14, §15

[20] = tested on: mammary gland breast cancer cell line (MCF-7); experiment: Antiproliferative activity, MTT assay; format: cell-based, human; settings: Homo sapiens, MCF7, 48 h, read-out: IC50 MCF-7
Procedure: (§16) 3-[4, 5-Dimethyl-2-thiazolyl)-2, 5-diphenyl-2 H-tetrazolium bromide (MTT) protocol is based on the cleavage of the tetrazolium salt by mitochondrial dehydrogenases in viable cells. Cells were dispensed in a 96 well sterile microplate (5 x 10^4 cells/well), and incubated at 37 °C with series of different concentrations, in DMSO, of each tested compound or Doxorubicin ® (positive control) for 48 h in a serum free medium prior to the MTT assay. After incubation, media were carefully removed, 40 µL of MTT (2.5 mg/mL) were added to each well and then incubated for an additional 4 h. The purple formazan dye crystals were solubilized by the addition of 200 µL of DMSO. The absorbance was measured at 590 nm using a SpectraMax® Paradigm® Multi-Mode microplate reader. The relative cell viability was expressed as the mean percentage of viable cells compared to the untreated control cells.
(§17) All experiments were conducted in triplicate and repeated in three different days. All the values were represented as mean ± SD. IC 50s were determined by probit analysis using SPSS software program (SPSS

[21] = tested on: hepatocellular carcinoma cell line (HepG2); experiment: Antiproliferative activity, MTT assay; format: cell-based, human; settings: Homo sapiens, HepG2, 48 h, read-out: IC50 HepG-2
Procedure: as §16, §17

Salmonella typhi [22] = experiment: Inhibition zone, agar plate diffusion; format: cell-based; settings: Salmonella enterica, St, mm ± standard deviation, sample at 0.5 mg/mL, read-out: Inhibition zone (IZ)
Procedure: as §3, §11, §12, §13, §14, §15
(§18) Bacteria were grown on nutrient agar medium, while fungi and yeast were grown on Sabouraud agar medium. […]

Fusarium oxysporum [23] = experiment: Inhibition zone, agar plate diffusion; format: cell-based; settings: read-out: Inhibition zone (IZ)
Procedure: as §3, §11, §12, §13, §14, §15, §18

Staphylococcus aureus [24] = experiment: Inhibition zone, agar plate diffusion; format: cell-based; settings: read-out: Inhibition zone (IZ)
Procedure: as §3, §11, §12, §13, §14, §15, §18

Candida albicans [25] = experiment: Inhibition zone, agar plate diffusion; format: cell-based; settings: read-out: Inhibition zone (IZ)
Procedure: as §3, §11, §12, §13, §14, §15, §18

[26] = tested on: S. aureus ATCC 43300 (MRSA); experiment: Inhibition zone against MDRB, agar plate diffusion; format: cell-based
Vero cells (ATCC CCL-81) = experiment: Cytotoxicity on normal cells, MTT assay; format: cell-based, African green monkey; settings: healthy non-cancer cells
Procedure: as §16, §17

Question: How did the MBC (S. aureus ATCC 33591 [1]) turn out when `COc1ccc(Nc2n[nH]c(N=Cc3c(C)nn(-c4ccccc4)c3Cl)c2C(=O)Nc2ccc(C)cc2)cc1` [7c, 5-((5-Chloro-3-methyl-1-phenyl-1H-pyrazol-4-yl)methyleneamino)-3-(p-methoxyphenylamino)-N-p-tolyl-1H-pyrazole-4-carboxamide] was run?
Answer: Its MBC is 11.1 µg/mL (≈ 20.6 µM).

Question: And the MIC (S. aureus ATCC 33591 [1])?
Answer: Its MIC is 5.55 µg/mL (≈ 10.3 µM).

Question: And the MBC (E. coli ATCC BAA-196 [2])?
Answer: Its MBC is 14.8 µg/mL (≈ 27.5 µM).

Question: And the MIC (E. coli ATCC BAA-196 [2])?
Answer: Its MIC is 7.81 µg/mL (≈ 14.5 µM).

Question: What about the MBC [3] of the same molecule?
Answer: The MBC was 14.8 µg/mL (≈ 27.5 µM).

Question: What about the MIC [3] of the same molecule?
Answer: The MIC was 7.81 µg/mL (≈ 14.5 µM).

Question: What about the MBC [4] of the same molecule?
Answer: The MBC was 6.66 µg/mL (≈ 12.3 µM).

Question: And the MIC [4]?
Answer: Its MIC is 4.44 µg/mL (≈ 8.22 µM).

Question: And the “Mean Diameter of Inhibition Zone against MDRB” value (S. aureus ATCC 33591 [5])?
Answer: Its value is 21 ± 0.19 mm.

Question: And the MFC (Fusarium oxysporum [6])?
Answer: The MFC was 87.5 µg/mL (≈ 162 µM).

Question: And the MIC (Fusarium oxysporum [6])?
Answer: The MIC was 55.5 µg/mL (≈ 103 µM).

Question: And the MFC (Candida albicans [7])?
Answer: The MFC was 41.6 µg/mL (≈ 77.1 µM).

Question: What about the MIC (Candida albicans [7]) of the same molecule?
Answer: The MIC was 31.2 µg/mL (≈ 57.9 µM).

Question: And the “Mean Diameter of Inhibition Zone against MDRB” value (E. coli ATCC BAA-196 [8])?
Answer: Its value is 21 ± 0.3 mm.

Question: And the MIC (Salmonella typhi [9])?
Answer: The MIC was 31.2 µg/mL (≈ 57.9 µM).

Question: And the MBC (Salmonella typhi [9]; read-out: MBC)?
Answer: The MBC was 56.2 µg/mL (≈ 104 µM).

Question: What about the MIC (Staphylococcus aureus [10]) of the same molecule?
Answer: The MIC was 31.2 µg/mL (≈ 57.9 µM).

Question: What about the MIC (Enterococcus faecalis [11]) of the same molecule?
Answer: Its MIC is 7.81 µg/mL (≈ 14.5 µM).

Question: And the MIC (Escherichia coli [12])?
Answer: Its MIC is 18.5 µg/mL (≈ 34.3 µM).

Question: And the “Fold more potent than Tetracycline (MIC)” value (Bacillus subtilis [13]; B. subtilis)?
Answer: Its value is 3 fold.

Question: And the MBC (Bacillus subtilis [13]; B. subtilis)?
Answer: The MBC was 18.5 µg/mL (≈ 34.3 µM).

Question: And the MIC (Bacillus subtilis [13]; Bacillus subtilis)?
Answer: Its MIC is 9.25 µg/mL (≈ 17.1 µM).

Question: And the MBC (Bacillus subtilis [13]; Bacillus subtilis, B. subtilis)?
Answer: The MBC was 10.6 µg/mL (≈ 19.6 µM).

Question: What about the MBC (Pseudomonas aeruginosa [14]) of the same molecule?
Answer: Its MBC is 88.8 µg/mL (≈ 164 µM).

Question: And the MIC (Pseudomonas aeruginosa [14]; Pseudomonas aeruginosa)?
Answer: The MIC was 55.5 µg/mL (≈ 103 µM).

Question: What about the MBC (Pseudomonas aeruginosa [14]; Pseudomonas aeruginosa) of the same molecule?
Answer: The MBC was 59.4 µg/mL (≈ 110 µM).

Question: What about the “Mean Diameter of Inhibition Zone against MDRB” value [15] of the same molecule?
Answer: The value was 22 ± 0.5 mm.

Question: What about the zone of inhibition at 500 µg/mL (Enterococcus faecalis [16]) of the same molecule?
Answer: The zone of inhibition at 500 µg/mL was 29 ± 0.17 mm.

Question: And the zone of inhibition at 500 µg/mL (Escherichia coli [17])?
Answer: Its zone of inhibition at 500 µg/mL is 30 ± 0.29 mm.

Question: What about the zone of inhibition at 500 µg/mL (Bacillus subtilis [18]) of the same molecule?
Answer: The zone of inhibition at 500 µg/mL was 32 ± 0.22 mm.

Question: What about the zone of inhibition at 500 µg/mL (Pseudomonas aeruginosa [19]) of the same molecule?
Answer: The zone of inhibition at 500 µg/mL was 27 ± 0.73 mm.

Question: And the IC50 [20]?
Answer: Its IC50 is 3.24 ± 0.41 µM.

Question: What about the IC50 [21] of the same molecule?
Answer: Its IC50 is 1.22 ± 0.23 µM.

Question: And the zone of inhibition at 500 µg/mL (Salmonella typhi [22])?
Answer: Its zone of inhibition at 500 µg/mL is 29 ± 0.2 mm.

Question: What about the zone of inhibition at 500 µg/mL (Fusarium oxysporum [23]) of the same molecule?
Answer: Its zone of inhibition at 500 µg/mL is 22 ± 0.11 mm.

Question: And the zone of inhibition at 500 µg/mL (Staphylococcus aureus [24])?
Answer: Its zone of inhibition at 500 µg/mL is 33 ± 0.53 mm.

Question: And the zone of inhibition at 500 µg/mL (Candida albicans [25])?
Answer: Its zone of inhibition at 500 µg/mL is 27 ± 0.5 mm.

Question: What about the “Mean Diameter of Inhibition Zone against MDRB” value [26] of the same molecule?
Answer: The value was 17 ± 0.37 mm.

Question: What about the IC50 (Vero cells (ATCC CCL-81); Chlorocebus sabaeus, Vero, read-out: IC50 Vero, MTT) of the same molecule?
Answer: Its IC50 is greater than 120 µM.

Question: And the IC50 (Vero cells (ATCC CCL-81); read-out: IC50 Vero, MTT)?
Answer: Its IC50 is 213.5 ± 0.57 µM.
